Measured values taken from ChEMBL document CHEMBL1201862, “PubChem BioAssay data set” (2004).
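Results reflect a 48-hour exposure of cells in 96-well plates to compound at five concentrations. GI50: concentration for 50% inhibition of growth.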 Active and inactive are the calls of the source. Rule as the data show it: active = GI50 up to about 1.1 µM and inactive = higher.

Legend:
Experiment in all cases: NCI tumour cell line growth inhibition, 48 h
ACHN = tested on: ACHN
CAKI-1 = tested on: CAKI-1
CCRF-CEM = tested on: CCRF-CEM
EKVX = tested on: EKVX
HCT-15 = tested on: HCT-15
HOP-62 = tested on: HOP-62
HOP-92 = tested on: HOP-92
HT-29 = tested on: HT-29
MCF7 = tested on: MCF7
MDA-N = tested on: MDA-N
Malme-3M = tested on: Malme-3M
NCI-H460 = tested on: NCI-H460
SF-539 = tested on: SF-539
SN12C = tested on: SN12C
SNB-19 = tested on: SNB-19
SR = tested on: SR
SW-620 = tested on: SW-620
UO-31 = tested on: UO-31
Hs-578T = tested on: Hs-578T
SK-MEL-5 = tested on: SK-MEL-5

Row | Structure (SMILES) | GI50 (ACHN) | GI50 (CAKI-1) | GI50 (CCRF-CEM) | GI50 (EKVX) | GI50 (HCT-15) [µM] | GI50 (HOP-62) | GI50 (HOP-92) | GI50 (HT-29) | GI50 (MCF7) | GI50 (MDA-N) | GI50 (Malme-3M) | GI50 (NCI-H460) | GI50 (SF-539) | GI50 (SN12C) | GI50 (SNB-19) | GI50 (SR) | GI50 (SW-620) | GI50 (UO-31) | GI50 (Hs-578T) | GI50 (SK-MEL-5)
1 | Cc1cn(C2CC(SCCO)C(CO)O2)c(=O)[nH]c1=O (centres undefined) | > 100 µM (inactive) | > 100 µM (inactive) | > 100 µM (inactive) | > 100 µM (inactive) | > 100 | > 100 µM (inactive) | > 100 µM (inactive) | > 100 µM (inactive) | > 100 µM (inactive) | > 100 µM (inactive) | > 100 µM (inactive) | > 100 µM (inactive) | > 100 µM (inactive) | > 100 µM (inactive) | > 100 µM (inactive) | > 100 µM (inactive) | > 100 µM (inactive) | > 100 µM (inactive) |  | 
2 | COc1cc2c3c(c1Oc1nnnn1-c1ccccc1)-c1c(ccc4c1OCO4)C[C@H]3N(C)CC2 | 25.7 µM (inactive) |  | 24.5 µM (inactive) | 32.4 µM (inactive) | 21.6 | 60.5 µM (inactive) | 24.4 µM (inactive) | 18.5 µM (inactive) |  | 21.9 µM (inactive) | 18.2 µM (inactive) | 36.9 µM (inactive) | > 100 µM (inactive) | 32.4 µM (inactive) | 65.5 µM (inactive) | 46.7 µM (inactive) | 80.7 µM (inactive) | 78.9 µM (inactive) | 28.4 µM (inactive) | 29.5 µM (inactive)
3 | C1CNOCCCONCCCNOCCCONC1 | > 100 µM (inactive) | > 100 µM (inactive) | > 100 µM (inactive) | 50.2 µM (inactive) | > 100 | 50.1 µM (inactive) | 26.1 µM (inactive) | > 100 µM (inactive) | 37.5 µM (inactive) | > 100 µM (inactive) | 30.1 µM (inactive) | 32.1 µM (inactive) |  | 77.4 µM (inactive) | 57.3 µM (inactive) |  | > 100 µM (inactive) | > 100 µM (inactive) | 59.3 µM (inactive) | > 100 µM (inactive)
4 | COc1ccccc1N1C(=O)/C(=C\c2cccc(Oc3ccccc3)c2)S(=O)(=O)C1c1ccccc1 (centres undefined) | > 100 µM (inactive) | > 100 µM (inactive) | 33.9 µM (inactive) | 10.5 µM (inactive) | 32.4 | > 100 µM (inactive) | 14.5 µM (inactive) |  | 27.4 µM (inactive) | 36.4 µM (inactive) | 69.3 µM (inactive) | 53.7 µM (inactive) |  | > 100 µM (inactive) | 50 µM (inactive) | 16.7 µM (inactive) | 49.3 µM (inactive) | 46.8 µM (inactive) |  | 21.5 µM (inactive)
5 | C=C[C@H]1CN2CC[C@H]1C[C@@H]2[C@@H](O)c1ccnc2ccccc12 [CINCHONINE] | > 100 µM (inactive) | > 100 µM (inactive) |  | 73.3 µM (inactive) | > 100 | 89.9 µM (inactive) |  | 46.8 µM (inactive) | > 100 µM (inactive) | > 100 µM (inactive) | > 100 µM (inactive) | > 100 µM (inactive) | > 100 µM (inactive) | > 100 µM (inactive) | > 100 µM (inactive) |  | > 100 µM (inactive) | 52.7 µM (inactive) | 1.26 µM (inactive) | > 100 µM (inactive)
6 | CC1=NN(c2nc(N)nc(C(C)Cl)n2)C(C)(C)C1 (centres undefined) | > 100 µM (inactive) | > 100 µM (inactive) | > 100 µM (inactive) | > 100 µM (inactive) | > 100 | > 100 µM (inactive) | > 100 µM (inactive) | > 100 µM (inactive) | > 100 µM (inactive) |  |  | > 100 µM (inactive) | > 100 µM (inactive) |  | > 100 µM (inactive) | > 100 µM (inactive) | > 100 µM (inactive) | > 100 µM (inactive) | > 100 µM (inactive) | > 100 µM (inactive)
7 | CC(=O)OC1CC2C(C)(C)OC(=O)CC(OC(C)=O)[C@]2(C)C2CCC3(C)C(=CCC3c3ccoc3)[C@]12C (some centres undefined) | 25.1 µM (inactive) | 31.3 µM (inactive) | 18.2 µM (inactive) | 15.5 µM (inactive) | 26.2 | 24 µM (inactive) | 6.32 µM (inactive) | 15.7 µM (inactive) |  |  | 25.6 µM (inactive) | 21.4 µM (inactive) | 26.8 µM (inactive) | 32.6 µM (inactive) | 14.3 µM (inactive) | 8.15 µM (inactive) | 32.1 µM (inactive) | 23.9 µM (inactive) |  | 21.4 µM (inactive)
8 | O=C(N/N=C(COc1ccc(Cl)cc1)\N=C\c1cccnc1)c1ccncc1 | > 100 µM (inactive) | > 100 µM (inactive) | > 100 µM (inactive) | > 100 µM (inactive) | 85.9 | > 100 µM (inactive) | 24.2 µM (inactive) | > 100 µM (inactive) | > 100 µM (inactive) | 25.5 µM (inactive) | 49.7 µM (inactive) | > 100 µM (inactive) | 57.3 µM (inactive) | > 100 µM (inactive) | > 100 µM (inactive) |  | > 100 µM (inactive) |  | 23.7 µM (inactive) | 
9 | O=c1[nH]c(=S)c2cc3c(=S)[nH]c(=O)n(CCC(c4ccccc4)(c4ccccc4)c4ccccc4)c3nc2n1CCC(c1ccccc1)(c1ccccc1)c1ccccc1 | > 100 µM (inactive) | > 100 µM (inactive) | 13.6 µM (inactive) | > 100 µM (inactive) | > 100 | > 100 µM (inactive) | > 100 µM (inactive) |  | > 100 µM (inactive) | > 100 µM (inactive) | > 100 µM (inactive) | > 100 µM (inactive) |  | > 100 µM (inactive) | > 100 µM (inactive) |  |  | > 100 µM (inactive) |  | > 100 µM (inactive)
10 | COc1cc2c(c(OC)c1OC)C(=O)CC2N (centres undefined) | > 100 µM (inactive) | > 100 µM (inactive) | > 100 µM (inactive) | > 100 µM (inactive) | > 100 |  | > 100 µM (inactive) | > 100 µM (inactive) | > 100 µM (inactive) |  | > 100 µM (inactive) | > 100 µM (inactive) | > 100 µM (inactive) |  | > 100 µM (inactive) |  | > 100 µM (inactive) | > 100 µM (inactive) | > 100 µM (inactive) | > 100 µM (inactive)
11 | CCCC1=C(CC)C(C(=O)Nc2c(C)cccc2C)=NC(S)N1 (centres undefined) | > 100 µM (inactive) | > 100 µM (inactive) | > 100 µM (inactive) | > 100 µM (inactive) | > 100 | > 100 µM (inactive) | > 100 µM (inactive) | > 100 µM (inactive) |  |  | > 100 µM (inactive) | > 100 µM (inactive) | > 100 µM (inactive) | > 100 µM (inactive) | > 100 µM (inactive) | > 100 µM (inactive) | > 100 µM (inactive) | > 100 µM (inactive) |  | > 100 µM (inactive)
12 | Cc1ccc2c(c1)C(C(=O)N[C@@H]1C(=O)N3[C@@H]1SC(C)(C)[C@@H]3C(=O)O)OCCC2 (some centres undefined) | > 100 µM (inactive) | > 100 µM (inactive) | > 100 µM (inactive) | > 100 µM (inactive) | > 100 | > 100 µM (inactive) | > 100 µM (inactive) | > 100 µM (inactive) | > 100 µM (inactive) |  |  | > 100 µM (inactive) | > 100 µM (inactive) | > 100 µM (inactive) | > 100 µM (inactive) | > 100 µM (inactive) | > 100 µM (inactive) | > 100 µM (inactive) | > 100 µM (inactive) | > 100 µM (inactive)
13 | O=C1NC2C(=O)N(Cc3ccccc3)C(=O)C2N1 (centres undefined) | > 100 µM (inactive) | > 100 µM (inactive) | > 100 µM (inactive) | > 100 µM (inactive) | > 100 | > 100 µM (inactive) | > 100 µM (inactive) | > 100 µM (inactive) |  |  | > 100 µM (inactive) | > 100 µM (inactive) | > 100 µM (inactive) | > 100 µM (inactive) | > 100 µM (inactive) | > 100 µM (inactive) | > 100 µM (inactive) | > 100 µM (inactive) |  | > 100 µM (inactive)
14 | COC1O[C@@H]2CCN3C(=O)[C@@H](OC(=O)c4ccc([N+](=O)[O-])cc4)[C@H]1C23 (some centres undefined) | > 100 µM (inactive) | > 100 µM (inactive) | > 100 µM (inactive) | > 100 µM (inactive) |  | > 100 µM (inactive) | > 100 µM (inactive) | > 100 µM (inactive) | > 100 µM (inactive) |  |  | > 100 µM (inactive) | > 100 µM (inactive) | > 100 µM (inactive) |  | > 100 µM (inactive) | > 100 µM (inactive) | > 100 µM (inactive) | > 100 µM (inactive) | > 100 µM (inactive)
15 | Cc1c(O)c(OC2OC(CO)C(O)C(O)C2O)cc2c1C=C[C@@H]1[C@@]2(C)C(=O)C[C@]2(C)[C@@H]([C@@](C)(O)C(=O)CCC(C)(C)O)[C@H](O)C[C@@]12C (some centres undefined) | 19.6 µM (inactive) | 20 µM (inactive) | 37.3 µM (inactive) | 28.6 µM (inactive) | 25.9 | 31.7 µM (inactive) | 18.4 µM (inactive) | 28.8 µM (inactive) | 33.6 µM (inactive) | 27.9 µM (inactive) | 24 µM (inactive) | 20.2 µM (inactive) | 18.1 µM (inactive) | 19.8 µM (inactive) | 23.2 µM (inactive) | 35.9 µM (inactive) | 29 µM (inactive) | 20.2 µM (inactive) |  | 23 µM (inactive)
16 | N[C@H](C(=O)O)[C@@H]1CC(Br)=NO1 | 73.5 µM (inactive) | 90.2 µM (inactive) |  | 73.3 µM (inactive) | 54.1 | 61.9 µM (inactive) | > 100 µM (inactive) | 57.5 µM (inactive) | 41.5 µM (inactive) |  | > 100 µM (inactive) | 42.2 µM (inactive) | 97.7 µM (inactive) |  | > 100 µM (inactive) | 44.1 µM (inactive) | 48.6 µM (inactive) | > 100 µM (inactive) | > 100 µM (inactive) | 54.5 µM (inactive)
